Experimental data reported in US9708314B2, “Heterocyclic amide compound” (NISSAN CHEMICAL INDUSTRIES, LTD., priority 2013, dated 2017).

What was measured:
Format in all cases: in vivo
[1] = test system: Echinochloa oryzacola Vasing.; experiment: Test Example 2: herbicidal activity, application during weed generation in submerged conditions; settings: Eighteenth Table; application herbicide amount 320 g/ha
Method in brief: (§1)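 Seeds were sown together in alluvial soil kept under 4 cm of water and grown at 25 °C to 30 °C. Once plants reached the one- to two-leaf stage, the diluted emulsion was applied to the water surface at a predetermined g/ha amount, and effects were rated 0–5 after three weeks.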

Monochoria vaginalis = experiment: as above; settings: Eighteenth Table; application herbicide amount 320 g/ha
Method in brief: as §1

Scirpus juncoides = experiment: as above; settings: Eighteenth Table; application herbicide amount 320 g/ha
Method in brief: as §1

Abutilon theophrasti = experiment: Test Example 4: herbicidal effect by application to foliage (diluvial soil, plastic box); settings: 320 g/ha; for M (Abutilon theophrasti) herbicidal effect grade: foliage application; for herbicidal effect, M (Abutilon theophrasti): application to foliage
Method in brief: (§2)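 Greenhouse plants (25° C. to 30° C., 14 d, diluvial soil) receive a foliar spray of water-diluted emulsifiable formulation at defined g/ha. Grading after 3 weeks uses a six-step herbicidal-ratio scale, with 4 covering 70% to <90% and 1 covering 5% to <20%.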

Alopecurus myosuroides = experiment: as above; settings: 320 g/ha; for J (Alopecurus myosuroides) herbicidal effect grade: foliage application; for herbicidal effect, J (Alopecurus myosuroides): application to foliage
Method in brief: as §2

Amaranthus retroflexus = experiment: as above; settings: 320 g/ha; for N (Amaranthus retroflexus) herbicidal effect grade: foliage application; for herbicidal effect, N (Amaranthus retroflexus): application to foliage
Method in brief: as §2

Apera spica-venti. = experiment: as above; settings: 320 g/ha; for L (Apera spica-venti.) herbicidal effect grade: foliage application; for herbicidal effect, L (Apera spica-venti.): application to foliage
Method in brief: as §2

Avena fatua = experiment: as above; settings: 320 g/ha; for I (Avena fatua) herbicidal effect grade: foliage application; for herbicidal effect, I (Avena fatua): application to foliage
Method in brief: as §2

Chenopodium album = experiment: as above; settings: 320 g/ha; for O (Chenopodium album) herbicidal effect grade: foliage application; for herbicidal effect, O (Chenopodium album): application to foliage
Method in brief: as §2

Digitaria ciliaris = experiment: as above; settings: 320 g/ha; for F (Digitaria ciliaris) herbicidal effect grade: foliage application; for herbicidal effect, F (Digitaria ciliaris): application to foliage
Method in brief: as §2

[2] = test system: Echinochloa crus-galli var. crus-galli; experiment: as above; settings: 320 g/ha; for H (Echinochloa crus-galli var. crus-galli) herbicidal effect grade: foliage application; for herbicidal effect, H (Echinochloa crus-galli var. crus-galli): application to foliage
Method in brief: as §2

Lolium multiflorum Lam. = experiment: as above; settings: 320 g/ha; for K (Lolium multiflorum Lam.) herbicidal effect grade: foliage application; for herbicidal effect, K (Lolium multiflorum Lam.): application to foliage
Method in brief: as §2

Setaria viridis = experiment: as above; settings: 320 g/ha; for G (Setaria viridis) herbicidal effect grade: foliage application; for herbicidal effect, G (Setaria viridis): application to foliage
Method in brief: as §2

Stellaria media = experiment: as above; settings: 320 g/ha; for P (Stellaria media) herbicidal effect grade: foliage application; for herbicidal effect, P (Stellaria media): application to foliage
Method in brief: as §2

Veronica persica = experiment: as above; settings: 320 g/ha; for R (Veronica persica) herbicidal effect grade: foliage application; for herbicidal effect, R (Veronica persica): application to foliage
Method in brief: as §2

| Compound | A (Echinochloa oryzicola Vasing.) herbicidal ratio grade [1] | C (Monochoria vaginalis) herbicidal ratio grade (Monochoria vaginalis) | B (Scirpus juncoides) herbicidal ratio grade (Scirpus juncoides) | M (Abutilon theophrasti) herbicidal effect grade (Abutilon theophrasti) | J (Alopecurus myosuroides) herbicidal effect grade (Alopecurus myosuroides) | N (Amaranthus retroflexus) herbicidal effect grade (Amaranthus retroflexus) | L (Apera spica-venti.) herbicidal effect grade (Apera spica-venti.) | I (Avena fatua) herbicidal effect grade (Avena fatua) | O (Chenopodium album) herbicidal effect grade (Chenopodium album) | F (Digitaria ciliaris) herbicidal effect grade (Digitaria ciliaris) | H (Echinochloa crus-galli var. crus-galli) herbicidal effect grade [2] | K (Lolium multiflorum Lam.) herbicidal effect grade (Lolium multiflorum Lam.) | G (Setaria viridis) herbicidal effect grade (Setaria viridis) | P (Stellaria media) herbicidal effect grade (Stellaria media) | R (Veronica persica) herbicidal effect grade (Veronica persica) | herbicidal effect, M (Abutilon theophrasti) (Abutilon theophrasti) | herbicidal effect, J (Alopecurus myosuroides) (Alopecurus myosuroides) | herbicidal effect, N (Amaranthus retroflexus) (Amaranthus retroflexus) | herbicidal effect, L (Apera spica-venti.) (Apera spica-venti.) | herbicidal effect, I (Avena fatua) (Avena fatua) | also measured |
| --- | --- | --- | --- | --- | --- | --- | --- | --- | --- | --- | --- | --- | --- | --- | --- | --- | --- | --- | --- | --- | --- |
| Cn1nnnc1NC(=O)c1ccc(C(F)(F)F)n2c(-c3ccc(F)cc3)nnc12 [2-043] | 5 (Herbicidal ratio of 90% or more (almost completely withered)) | 4 (Herbicidal ratio of 70% or more and less than 90%) | 4 (Herbicidal ratio of 70% or more and less than 90%) | 5 (Herbicidal ratio of 90% or more (almost completely withered)) | 3 (Herbicidal ratio of 40% or more and less than 70%) | 5 (Herbicidal ratio of 90% or more (almost completely withered)) | 4 (Herbicidal ratio of 70% or more and less than 90%) | 4 (Herbicidal ratio of 70% or more and less than 90%) | 5 (Herbicidal ratio of 90% or more (almost completely withered)) | 5 (Herbicidal ratio of 90% or more (almost completely withered)) | 5 (Herbicidal ratio of 90% or more (almost completely withered)) | 2 (Herbicidal ratio of 20% or more and less than 40%) | 4 (Herbicidal ratio of 70% or more and less than 90%) | 5 (Herbicidal ratio of 90% or more (almost completely withered)) | 5 (Herbicidal ratio of 90% or more (almost completely withered)) |  |  |  |  |  |  |
| CCn1nc2c(C(=O)Nc3nnnn3C)ccc(C(F)(F)F)n2c1=O [6-004] | 3 (Herbicidal ratio of 40% or more and less than 70%) | 2 (Herbicidal ratio of 20% or more and less than 40%) | 0 (Herbicidal ratio of 5% or less (almost no effect)) |  |  |  |  |  |  |  |  |  |  |  |  | 5 (Herbicidal ratio of 90% or more (almost completely withered)) | 1 (Herbicidal ratio of 5% or more and less than 20%) | 5 (Herbicidal ratio of 90% or more (almost completely withered)) | 1 (Herbicidal ratio of 5% or more and less than 20%) | 3 (Herbicidal ratio of 40% or more and less than 70%) | herbicidal effect, O (Chenopodium album) (Chenopodium album): 5 (Herbicidal ratio of 90% or more (almost completely withered)); herbicidal effect, F (Digitaria ciliaris) (Digitaria ciliaris): 5 (Herbicidal ratio of 90% or more (almost completely withered)); herbicidal effect, H (Echinochloa crus-galli var. crus-galli) [2]: 5 (Herbicidal ratio of 90% or more (almost completely withered)); herbicidal effect, K (Lolium multiflorum Lam.) (Lolium multiflorum Lam.): 2 (Herbicidal ratio of 20% or more and less than 40%); herbicidal effect, G (Setaria viridis) (Setaria viridis): 4 (Herbicidal ratio of 70% or more and less than 90%); herbicidal effect, P (Stellaria media) (Stellaria media): 4 (Herbicidal ratio of 70% or more and less than 90%); herbicidal effect, R (Veronica persica) (Veronica persica): 3 (Herbicidal ratio of 40% or more and less than 70%) |
| CCC(C)Sc1nnc2c(C(=O)Nc3nnnn3C)ccc(C(F)(F)F)n12 (stereo not drawn) [2-072] | 5 (Herbicidal ratio of 90% or more (almost completely withered)) | 5 (Herbicidal ratio of 90% or more (almost completely withered)) | 5 (Herbicidal ratio of 90% or more (almost completely withered)) | 5 (Herbicidal ratio of 90% or more (almost completely withered)) | 1 (Herbicidal ratio of 5% or more and less than 20%) | 5 (Herbicidal ratio of 90% or more (almost completely withered)) | 3 (Herbicidal ratio of 40% or more and less than 70%) | 1 (Herbicidal ratio of 5% or more and less than 20%) | 5 (Herbicidal ratio of 90% or more (almost completely withered)) | 5 (Herbicidal ratio of 90% or more (almost completely withered)) | 5 (Herbicidal ratio of 90% or more (almost completely withered)) | 1 (Herbicidal ratio of 5% or more and less than 20%) | 5 (Herbicidal ratio of 90% or more (almost completely withered)) | 5 (Herbicidal ratio of 90% or more (almost completely withered)) | 5 (Herbicidal ratio of 90% or more (almost completely withered)) |  |  |  |  |  |  |
| COc1ccc(N(C)c2nnc3c(C(=O)Nc4nnnn4C)ccc(C(F)(F)F)n23)cc1 [2-099] | 5 (Herbicidal ratio of 90% or more (almost completely withered)) | 4 (Herbicidal ratio of 70% or more and less than 90%) | 5 (Herbicidal ratio of 90% or more (almost completely withered)) |  |  |  |  |  |  |  |  |  |  |  |  | 4 (Herbicidal ratio of 70% or more and less than 90%) | 0 (Herbicidal ratio of 5% or less (almost no effect)) | 4 (Herbicidal ratio of 70% or more and less than 90%) | 1 (Herbicidal ratio of 5% or more and less than 20%) | 2 (Herbicidal ratio of 20% or more and less than 40%) | herbicidal effect, O (Chenopodium album) (Chenopodium album): 5 (Herbicidal ratio of 90% or more (almost completely withered)); herbicidal effect, F (Digitaria ciliaris) (Digitaria ciliaris): 5 (Herbicidal ratio of 90% or more (almost completely withered)); herbicidal effect, H (Echinochloa crus-galli var. crus-galli) [2]: 5 (Herbicidal ratio of 90% or more (almost completely withered)); herbicidal effect, K (Lolium multiflorum Lam.) (Lolium multiflorum Lam.): 1 (Herbicidal ratio of 5% or more and less than 20%); herbicidal effect, G (Setaria viridis) (Setaria viridis): 4 (Herbicidal ratio of 70% or more and less than 90%); herbicidal effect, P (Stellaria media) (Stellaria media): 5 (Herbicidal ratio of 90% or more (almost completely withered)); herbicidal effect, R (Veronica persica) (Veronica persica): 5 (Herbicidal ratio of 90% or more (almost completely withered)) |
| CSCCc1nnc2c(C(=O)Nc3nnnn3C)ccc(C(F)(F)F)n12 [2-057] | 4 (Herbicidal ratio of 70% or more and less than 90%) | 4 (Herbicidal ratio of 70% or more and less than 90%) | 4 (Herbicidal ratio of 70% or more and less than 90%) | 5 (Herbicidal ratio of 90% or more (almost completely withered)) | 4 (Herbicidal ratio of 70% or more and less than 90%) | 5 (Herbicidal ratio of 90% or more (almost completely withered)) | 4 (Herbicidal ratio of 70% or more and less than 90%) | 4 (Herbicidal ratio of 70% or more and less than 90%) | 5 (Herbicidal ratio of 90% or more (almost completely withered)) | 5 (Herbicidal ratio of 90% or more (almost completely withered)) | 5 (Herbicidal ratio of 90% or more (almost completely withered)) | 4 (Herbicidal ratio of 70% or more and less than 90%) | 5 (Herbicidal ratio of 90% or more (almost completely withered)) | 5 (Herbicidal ratio of 90% or more (almost completely withered)) | 5 (Herbicidal ratio of 90% or more (almost completely withered)) |  |  |  |  |  |  |
